Values of other authors, collected in patent publication US12251467B2, “Vaginal hydrogel for delivery of therapeutics” (priority 2018, dated 2025).
≈ marks a conversion by molar mass, not a printed value.

solubility in water: 100 µg/mL (≈ 363 µM)
Structure (SMILES): Cc1ncc([N+](=O)[O-])n1CCOC(=O)c1ccccc1 [metronidazole benzoate]
